In general, inhibition refers to how much of the control response was suppressed. Low readings indicate a weak effect, high ones a strong effect. The IC50 is the concentration that inhibits the measured activity by half. Higher therefore signals weaker potency in that assay.

One assay has as its system Panc-1 cells. The assay is described as follows: Cell growth by Incucyte confluence, Panc-1. Format: cell-based, human. The settings on record: 48–72 h; for reduction of proliferation of Panc-1 cells: 25 µM. The method, then: (§1) MCF-7 (DSMZ ACC 115) and PANC-1 (DSMZ ACC 783) cells were grown as recommended by the cell supplier at 5% CO2 and 37 °C in a humidified atmosphere. For determining cell growth, cells were seeded in 96-well culture plates (Corning, Corning, NY, USA) at a density of 10^4 cells/well. After 24 h, the compounds were added diluted in medium. Six wells per condition were used. Four images of each well were collected at 1 h intervals for 48–72 h. Two biological replicates were performed. Images were acquired using an Incucyte device (Sartorius/Essen biosciences). Cell confluence was calculated using the Incucyte software on the phase contrast images. The results are expressed as percent confluence per well normalised to the value with no compounds added.

For another assay, the system named is MCF-7 cells. Put plainly: Cell growth by Incucyte confluence, MCF-7. The assay is classed as cell-based, human. Particulars: 48–72 h; for reduction of proliferation of MCF-7 cells: 25 µM. The method, then:
as §1

A further assay concerns the target T1, KV10.1 (Eag1) (Homo sapiens, UniProt O95259).
T1 construct: expressed in transfected cells; host or cells: HEK-293 (stably transfected)
T1 sequence (O95259 1-962 isoform O95259-2): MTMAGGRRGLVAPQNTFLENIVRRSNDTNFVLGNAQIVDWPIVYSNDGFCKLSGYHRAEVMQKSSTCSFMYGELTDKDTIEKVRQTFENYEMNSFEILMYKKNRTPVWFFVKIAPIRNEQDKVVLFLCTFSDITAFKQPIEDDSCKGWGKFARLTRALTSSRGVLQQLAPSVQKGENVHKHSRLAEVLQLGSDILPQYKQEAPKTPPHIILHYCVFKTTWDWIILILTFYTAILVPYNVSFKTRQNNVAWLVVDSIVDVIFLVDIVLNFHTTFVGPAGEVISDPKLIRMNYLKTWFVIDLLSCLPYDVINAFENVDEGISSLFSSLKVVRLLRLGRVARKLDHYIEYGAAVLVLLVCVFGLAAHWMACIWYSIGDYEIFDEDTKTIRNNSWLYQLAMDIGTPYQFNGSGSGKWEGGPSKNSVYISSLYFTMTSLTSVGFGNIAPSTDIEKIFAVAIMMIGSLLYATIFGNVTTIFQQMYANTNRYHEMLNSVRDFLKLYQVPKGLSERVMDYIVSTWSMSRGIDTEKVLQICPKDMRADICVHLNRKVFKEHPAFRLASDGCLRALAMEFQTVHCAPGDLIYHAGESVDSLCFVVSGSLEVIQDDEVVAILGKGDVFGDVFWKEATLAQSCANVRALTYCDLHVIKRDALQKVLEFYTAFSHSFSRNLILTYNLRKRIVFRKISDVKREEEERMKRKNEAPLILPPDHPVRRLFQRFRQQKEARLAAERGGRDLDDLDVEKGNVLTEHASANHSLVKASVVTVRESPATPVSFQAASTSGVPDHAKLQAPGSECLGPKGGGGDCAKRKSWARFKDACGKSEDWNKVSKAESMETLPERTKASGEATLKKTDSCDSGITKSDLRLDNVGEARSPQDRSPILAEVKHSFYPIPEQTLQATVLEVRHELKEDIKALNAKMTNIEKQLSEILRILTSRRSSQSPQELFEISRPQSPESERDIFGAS
The assay is described as follows: Whole-cell patch-clamp on stably transfected HEK-293 cells expressing KV10.1. The assay is classed as cell-based. The settings on record: for IC50: whole-cell patch-clamp, dose–response fit. Here is the method: For whole-cell patch-clamp measurements, stably transfected HEK-293 cells expressing KV10.1 [26, 27, 28] were grown in DMEM with 10% FCS and 300 µg/mL Zeocin on glass coverslips coated with fibronectin. All experiments were conducted at room temperature under perfusion by gravity with extracellular solution (160 mM NaCl, 2.5 mM KCl, 2 mM CaCl2, 1 mM MgCl2, 10 mM Hepes pH 7.4 with NaOH, 8 mM glucose). Pipettes were made from #1 glass capillaries (WPI) and had 1–3 MΩ resistance. The intracellular solution contained 100 mM KCl, 45 mM N-methyl-D-glucamine, 10 mM 1,2-bis(o-aminophenoxy)ethane-N,N,N′,N′-tetraacetic acid (BAPTA), 10 mM Hepes pH 7.35. Stimulation was applied and data were acquired with an EPC10 Plus amplifier (HEKA Elektronik) controlled with Patch Master software. Compounds were applied with an 8-channel fast solution exchanger (ALA). Compounds were prepared to a stock concentration of 10 mM in DMSO. The control solution contained 0.5% DMSO. Stimuli consisted of 500 ms depolarizations to +40 mV.
All electrophysiological data are presented as means ± SEM of n ≥ 3 independent experiments unless otherwise indicated. Oocyte data were analysed using pClamp Clampfit 10.4 (Molecular Devices, Downingtown, PA, USA) and OriginPro 9 (Originlab, Northampton, MA, USA) or GraphPad Prism 8 software (GraphPad Software, Inc., San Diego, CA, USA). Patch-clamp data analysis was performed using FitMaster (HEKA Electronics), IgorPro (Wavemetrics, Inc., Lake Oswego, OR, USA) and GraphPad Prism 9 (GraphPad Software, Inc., San Diego, CA, USA). The Dunnett test and one-way ANOVA were performed to calculate the significance of the induced inhibition compared to the control (p < 0.05).
On the technique in general: Patch clamp records ionic current or voltage across a cell membrane.

For a further assay, the target named is hERG (Homo sapiens, UniProt Q12809). The assay is described as follows: Whole-cell patch-clamp, hERG inhibition. The assay is classed as cell-based. Particulars: dose–response fit. The arrangement: expressed in transfected cells.
Where [1] appears, read: concentrations higher than 25 µM.

hERG, sequence (Q12809 whole entry): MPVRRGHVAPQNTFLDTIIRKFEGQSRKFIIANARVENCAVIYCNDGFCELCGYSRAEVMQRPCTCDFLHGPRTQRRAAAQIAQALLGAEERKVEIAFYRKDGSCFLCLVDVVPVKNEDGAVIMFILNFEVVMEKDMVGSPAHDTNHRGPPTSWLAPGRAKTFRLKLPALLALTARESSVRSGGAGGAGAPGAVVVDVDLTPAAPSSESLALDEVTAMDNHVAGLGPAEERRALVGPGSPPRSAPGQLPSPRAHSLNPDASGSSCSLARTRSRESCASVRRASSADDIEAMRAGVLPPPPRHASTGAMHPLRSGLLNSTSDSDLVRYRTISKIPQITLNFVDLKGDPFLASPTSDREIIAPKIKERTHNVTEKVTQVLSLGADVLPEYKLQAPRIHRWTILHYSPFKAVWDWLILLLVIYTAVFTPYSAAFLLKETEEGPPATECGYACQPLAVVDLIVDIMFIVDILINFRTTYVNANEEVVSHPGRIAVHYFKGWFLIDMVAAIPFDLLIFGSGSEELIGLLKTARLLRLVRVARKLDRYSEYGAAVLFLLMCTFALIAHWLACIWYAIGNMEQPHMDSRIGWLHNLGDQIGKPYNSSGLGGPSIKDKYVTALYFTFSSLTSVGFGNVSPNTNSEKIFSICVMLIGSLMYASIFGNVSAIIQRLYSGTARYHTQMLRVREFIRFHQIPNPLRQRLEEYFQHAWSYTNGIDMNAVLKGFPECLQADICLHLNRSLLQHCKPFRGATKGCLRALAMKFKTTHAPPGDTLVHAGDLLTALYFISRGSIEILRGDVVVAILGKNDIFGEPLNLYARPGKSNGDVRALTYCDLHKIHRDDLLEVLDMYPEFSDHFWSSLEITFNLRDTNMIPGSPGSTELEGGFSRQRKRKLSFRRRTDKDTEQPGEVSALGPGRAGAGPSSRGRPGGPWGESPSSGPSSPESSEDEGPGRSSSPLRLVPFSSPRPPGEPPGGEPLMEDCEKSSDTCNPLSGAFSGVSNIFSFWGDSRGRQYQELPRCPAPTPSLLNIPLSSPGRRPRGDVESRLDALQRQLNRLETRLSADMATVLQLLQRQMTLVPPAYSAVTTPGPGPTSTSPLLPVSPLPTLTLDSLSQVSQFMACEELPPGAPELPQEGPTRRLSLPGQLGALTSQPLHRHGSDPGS

With `CCN(CC)CCOc1ccc(Nc2ccc(C(F)(F)F)cc2[N+](=O)[O-])cc1` [Compound 17a, N-(4-(2-(Diethylamino)ethoxy)phenyl)-2-nitro-4-(trifluoromethyl)aniline], the “reduction of proliferation of Panc-1 cells” value in the assay on Panc-1 cells was “approximately half”. For the same compound, the “inhibition of growth of Panc-1 cells” value in the assay on Panc-1 cells (setting [1]) is reported as “approximately 50%”. For the same compound, the “reduction of proliferation of MCF-7 cells” value in the assay with MCF-7 cells is on record as “approximately half”. In addition, in the assay on MCF-7 cells (setting [1]), the “inhibition of growth of MCF-7 cells” value was “approximately 50%”. For the same compound, 10 µM produced 86.2 ± 6.8% inhibition against KV10.1 (Eag1) (HEK293, 10 μM, HEK-293 cells, patch-clamp, mean ± SEM). In addition, the IC50 against KV10.1 (Eag1) amounted to 0.568 µM; against hERG it was 0.232 µM.
On to `CN(C)CCOc1c(Br)cc(Nc2ccc(C(F)(F)F)cc2[N+](=O)[O-])cc1Br` [Compound 18b, 3,5-Dibromo-4-(2-(dimethylamino)ethoxy)-N-(2-nitro-4-(trifluoromethyl)phenyl)aniline], for which the “reduction of proliferation of Panc-1 cells” value in the assay with Panc-1 cells was “approximately half”. In the assay with MCF-7 cells, the “reduction of proliferation of MCF-7 cells” value was “approximately half”. Also, the inhibition at 1 µM on KV10.1 (Eag1) (HEK293, 1 μM, HEK-293 cells, patch-clamp, mean ± SEM) was 73.5 ± 0.5%. In addition, the IC50 was determined as 0.216 µM on KV10.1 (Eag1) and 0.0049 µM against hERG.

The record behind these values is article PMC9501377, “New Diarylamine KV10.1 Inhibitors and Their Anticancer Potential” (Pharmaceutics, 2022).
